Assay results reported in ChEMBL document CHEMBL5096228, “Targeting Vancomycin-Resistant Enterococci (VRE) Infections and Van Operon-Mediated Drug Resistance Using Dimeric Cholic Acid-Peptide Conjugates” (J Med Chem, 2022).
In brackets after ≈: the same amount, converted by molar mass. Activity calls are given as the source filed them. The calls are words filed in the database; no cut-off is given here.

Assays:
Staphylococcus aureus [1] = experiment: Antimicrobial activity against Staphylococcus aureus ATCC 25923 assessed as growth inhibition after 14 to 16 hrs by CLSI based broth dilution method; format: functional; settings: time 14-16 hrs
Staphylococcus aureus [2] = experiment: Antimicrobial activity against methicillin-resistant Staphylococcus aureus ATCC 33591 assessed as growth inhibition after 14 to 16 hrs by CLSI based broth dilution method; format: functional; settings: time 14-16 hrs
Enterococcus faecium [3] = experiment: Antimicrobial activity against Vancomycin-resistant Enterococcus faecium ATCC 51559 assessed as growth inhibition after 14 to 16 hrs by CLSI based broth dilution method; format: functional; settings: time 14-16 hrs
Enterococcus faecium [4] = experiment: Resistance development in vancomycin-susceptible Enterococcus faecium assessed as vancomycin MIC99 at 2 ug/ml measured after 110 vancomycin passages; format: functional, organism-based; settings: dose 2.0 µg/ml
Mus musculus = experiment: Antimicrobial activity against Vancomycin-resistant Enterococcus faecium ATCC 51559 induced wound in BALB/c mouse assessed as log reduction in colony forming unit at 40 mg/kg administered topically 3 times daily for 3 days; format: functional; settings: route top, time 3 day
[5] = Cytotoxicity against mouse LLC cells assessed as reduction in cell viability; format: toxicity, cell-based; settings: LLC (3LL) cells
Enterococcus faecium [6] = experiment: Development of drug resistance in vancomycin-resistant Enterococcus faecium ATCC 51559 assessed as increase in TN1546 expression measured after 7 days; format: functional; settings: time 7 day
Enterococcus faecium [7] = experiment: Antimicrobial activity against Enterococcus faecium assessed as growth inhibition after 14 to 16 hrs by CLSI based broth dilution method; format: functional; settings: time 14-16 hrs
Enterococcus faecium [8] = experiment: Inhibition of vancomycin-resistance in Enterococcus faecium ATCC 51559 assessed as reduction in vanY expression at 2 ug/ml incubated for 1 hr measured after 7 days in presence of vancomycin by qRT-PCR analysis; format: functional; settings: dose 2.0 µg/ml
Enterococcus faecium [9] = experiment: Inhibition of vancomycin-resistance in Enterococcus faecium ATCC 51559 assessed as reduction in vanX expression at 2 ug/ml incubated for 1 hr measured after 7 days in presence of vancomycin by qRT-PCR analysis; format: functional; settings: dose 2.0 µg/ml
Enterococcus faecium [10] = experiment: Inhibition of vancomycin-resistance in Enterococcus faecium ATCC 51559 assessed as increase in vanA expression at 2 ug/ml measured after 1 hr by qRT-PCR analysis; format: functional; settings: dose 2.0 µg/ml
Enterococcus faecium [11] = experiment: Induction of reactive oxygen species generation in Enterococcus faecium ATCC 51559 incubated for 1 hr by DCFH-DA based fluorescent microscopy; format: functional, organism-based
Enterococcus faecium [12] = experiment: Inhibition of vancomycin-resistance in Enterococcus faecium ATCC 51559 assessed as increase in vanX expression at 2 ug/ml measured after 1 hr in presence of vancomycin by qRT-PCR analysis; format: functional; settings: dose 2.0 µg/ml
Enterococcus faecium [13] = experiment: Inhibition of vancomycin-resistance in Enterococcus faecium ATCC 51559 assessed as increase in vanS expression at 2 ug/ml measured after 1 hr by qRT-PCR analysis; format: functional; settings: dose 2.0 µg/ml
Enterococcus faecium [14] = experiment: Development of drug resistance in vancomycin-resistant Enterococcus faecium ATCC 51559 assessed as increase in TN1546 expression measured after 7 days in presence of vancomycin; format: functional, organism-based; settings: time 7.0 day
Enterococcus faecium [15] = experiment: Inhibition of vancomycin-resistance in Enterococcus faecium ATCC 51559 assessed as reduction in vanZ expression at 2 ug/ml incubated for 1 hr measured after 7 days in presence of vancomycin by qRT-PCR analysis; format: functional; settings: dose 2.0 µg/ml
Enterococcus faecium [16] = experiment: Inhibition of vancomycin-resistance in Enterococcus faecium ATCC 51559 assessed as increase in vanR expression at 2 ug/ml measured after 1 hr by qRT-PCR analysis; format: functional; settings: dose 2.0 µg/ml
[17] = Induction of membrane-permeabilization in Enterococcus faecium ATCC 51559 at 4 ug/ml measured after 1 hr by PI staining based flow cytometry analysis; settings: at 4 µg/mL
Enterococcus faecium [18] = experiment: Antimicrobial activity against vancomycin-susceptible Enterococcus faecium induced wound in BALB/c mouse assessed as log reduction in colony forming unit at 40 mg/kg administered topically 3 times daily for 3 days; format: functional, organism-based; settings: route top, time 3.0 day
[19] = Hemolytic activity in human RBC at 50 ug/ml; format: toxicity, cell-based, Erythrocyte; settings: red blood cells (erythrocytes), at 50 µg/mL, read-out: Activity
Enterococcus faecium [20] = experiment: Inhibition of vancomycin-resistance in Enterococcus faecium ATCC 51559 assessed as reduction in vanS expression at 2 ug/ml measured after 1 hr in presence of vancomycin by qRT-PCR analysis; format: functional; settings: dose 2.0 µg/ml
Cell membrane [21] = experiment: Disruption of membrane in Enterococcus faecium ATCC 51559 at 4 to 16 ug/ml measured after 1 hr by SYTO9/PI staining based fluorometric analysis; format: subcellular; settings: dose 4-16 µg/ml
Enterococcus faecium [22] = experiment: Inhibition of vancomycin-resistance in Enterococcus faecium ATCC 51559 assessed as increase in vanH expression at 2 ug/ml measured after 1 hr by qRT-PCR analysis; format: functional; settings: dose 2.0 µg/ml
Enterococcus faecium [23] = experiment: Antibiofilm activity against Vancomycin-resistant Enterococcus faecium ATCC 51559 assessed as log reduction in colony forming unit at 16 ug/ml by SYTO9 and PI staining based fluorescence assay; format: functional, organism-based; settings: dose 16.0 µg/ml, time 1-6 hrs, TDE = time-dependent effect
Enterococcus faecium [24] = experiment: Inhibition of vancomycin-resistance in Enterococcus faecium ATCC 51559 assessed as increase in vanY expression at 2 ug/ml measured after 1 hr by qRT-PCR analysis; format: functional; settings: dose 2.0 µg/ml
Enterococcus faecium [25] = experiment: Antibiofilm activity against Vancomycin-resistant Enterococcus faecium ATCC 51559 assessed as log reduction in colony forming unit at 16 ug/ml incubated for 3 hrs by SYTO9 and PI staining based fluorescence assay; format: functional; settings: dose 16 µg/ml
Enterococcus faecium [26] = experiment: Induction of membrane-permeabilization in Enterococcus faecium ATCC 51559 at 8 ug/ml measured after 1 hr by PI staining based flow cytometry analysis; format: functional; settings: dose 8.0 µg/ml
Enterococcus faecium [27] = experiment: Inhibition of vancomycin-resistance in Enterococcus faecium ATCC 51559 assessed as reduction in vanA expression at 2 ug/ml incubated for 1 hr measured after 7 days in presence of vancomycin by qRT-PCR analysis; format: functional; settings: dose 2.0 µg/ml
Enterococcus faecium [28] = experiment: Antibiofilm activity against Vancomycin-resistant Enterococcus faecium ATCC 51559 assessed as log reduction in colony forming unit at 16 ug/ml incubated for 12 hrs by SYTO9 and PI staining based fluorescence assay; format: functional; settings: dose 16 µg/ml
Enterococcus faecium [29] = experiment: Inhibition of vancomycin-resistance in Enterococcus faecium ATCC 51559 assessed as increase in vanZ expression at 2 ug/ml measured after 1 hr by qRT-PCR analysis; format: functional; settings: dose 2.0 µg/ml
Cell membrane [30] = experiment: Induction of membrane disruption in Vancomycin-resistant Enterococcus faecium ATCC 51559 at 4 to 16 ug/ml measured after 15 mins by DiSC2(5) dye based multimode plate reader assay; format: functional, subcellular; settings: dose 4-16 µg/ml
Enterococcus faecium [31] = experiment: Inhibition of vancomycin-resistance in Enterococcus faecium ATCC 51559 assessed as reduction in vanR expression at 2 ug/ml measured after 1 hr in presence of vancomycin by qRT-PCR analysis; format: functional; settings: dose 2.0 µg/ml
Enterococcus faecium [32] = experiment: Antibiofilm activity against Vancomycin-resistant Enterococcus faecium ATCC 51559 assessed as log reduction in colony forming unit incubated for 12 hrs by SYTO9 and PI staining based fluorescence assay; format: functional, organism-based; settings: dose 4-16 µg/ml, DDE = dose-dependent effect
Enterococcus faecium [33] = experiment: Antibiofilm activity against Vancomycin-resistant Enterococcus faecium ATCC 51559 assessed as log reduction in colony forming unit at 32 ug/ml incubated for 12 hrs by SYTO9 and PI staining based fluorescence assay; format: functional; settings: dose 32 µg/ml
Enterococcus faecium [34] = experiment: Bactericidal activity against Vancomycin-resistant Enterococcus faecium ATCC 51559 assessed as inhibition of bacterial growth at 4 to 16 ug/ml measured upto 24 hrs by time-kill assay; format: functional, organism-based; settings: dose 4-16 µg/ml
Enterococcus faecium [35] = experiment: Inhibition of vancomycin-resistance in Enterococcus faecium ATCC 51559 assessed as reduction in vanH expression at 2 ug/ml incubated for 1 hr measured after 7 days in presence of vancomycin by qRT-PCR analysis; format: functional; settings: dose 2.0 µg/ml
Enterococcus faecium [36] = experiment: Membrane permeabilization in Enterococcus faecium ATCC 51559 at 16 ug/ml measured after 1 hr by PI staining based flow cytometry analysis; format: functional; settings: dose 16 µg/ml
Cell membrane [37] = experiment: Disruption of membrane in Enterococcus faecium ATCC 51559 at 4 ug/ml by SYTO9/PI staining based fluorometric analysis; settings: dose 4.0 µg/ml, time 1-6 hrs, TDE = time-dependent effect
Enterococcus faecium [38] = experiment: Resistance development in vancomycin-resistance Enterococcus faecium ATCC 51559 assessed as decrease CFU measured in presence of vancomycin; format: functional, organism-based

CN[C@H](CC(C)C)C(=O)N[C@H]1C(=O)N[C@@H](CC(N)=O)C(=O)N[C@H]2C(=O)N[C@H]3C(=O)N[C@H](C(=O)N[C@H](C(=O)O)c4cc(O)cc(O)c4-c4cc3ccc4O)[C@H](O)c3ccc(c(Cl)c3)Oc3cc2cc(c3O[C@@H]2O[C@H](CO)[C@@H](O)[C@H](O)[C@H]2O[C@H]2C[C@](C)(N)[C@H](O)[C@H](C)O2)Oc2ccc(cc2Cl)[C@H]1O [VANCOMYCIN]
MIC99 (Staphylococcus aureus [1]): 8 µg/mL (≈ 5.52 µM) | MIC99 (Staphylococcus aureus [2]): 2 µg/mL (≈ 1.38 µM) | MIC99 (Enterococcus faecium [3]): > 128 µg/mL | Activity (Enterococcus faecium [4]): Active | log(activity) (Mus musculus): 2 | IC50 [5]: > 1000 µM | fold change (FC) (Enterococcus faecium [6]): 3 | MIC99 (Enterococcus faecium [7]): 4 µg/mL (≈ 2.76 µM)

CC(C)C(N)C(=O)NCC(=O)O[C@@H]1CC[C@@]2(C)[C@@H](C1)C[C@@H](OC(=O)CNC(=O)C(N)C(C)C)[C@@H]1[C@@H]2C[C@H](OC(=O)CNC(=O)C(N)C(C)C)[C@]2(C)[C@@H]([C@H](C)CCC(=O)NCc3cn(CCCn4cc(CNC(=O)CC[C@@H](C)[C@H]5CC[C@H]6[C@@H]7[C@H](OC(=O)CNC(=O)C(N)C(C)C)C[C@@H]8C[C@H](OC(=O)CNC(=O)C(N)C(C)C)CC[C@]8(C)[C@H]7C[C@H](OC(=O)CNC(=O)C(N)C(C)C)[C@]56C)nn4)nn3)CC[C@@H]12.Cl.Cl.Cl.Cl.Cl.Cl (stereo not given in full)
MIC99 (Staphylococcus aureus [1]): 64 µg/mL | Activity (Enterococcus faecium [8]): Active | Activity (Enterococcus faecium [9]): Active | Activity (Enterococcus faecium [10]): Active | MIC99 (Staphylococcus aureus [2]): 16 µg/mL | Activity (Enterococcus faecium [11]): Active | Activity (Enterococcus faecium [12]): Active | Activity (Enterococcus faecium [13]): Active | Activity (Enterococcus faecium [14]): Active | MIC99 (Enterococcus faecium [3]): 4 µg/mL | Activity (Enterococcus faecium [15]): Active | Activity (Enterococcus faecium [16]): Active | Activity [17]: 90% | Activity (Enterococcus faecium [18]): Active | hemolysis at 50 ug/ml [19]: 5% | Activity (Enterococcus faecium [20]): Active | Activity (Cell membrane [21]): Active | Activity (Enterococcus faecium [22]): Active | Activity (Enterococcus faecium [23]): Tde | Activity (Enterococcus faecium [24]): Active | log(activity) (Mus musculus): 1 | log(activity) (Enterococcus faecium [25]): 3 | IC50 [5]: 414 µg/mL | Activity (Enterococcus faecium [26]): 90% | Activity (Enterococcus faecium [27]): Active | log(activity) (Enterococcus faecium [28]): 3 | Activity (Enterococcus faecium [29]): Active | Activity (Cell membrane [30]): Active | Activity (Enterococcus faecium [31]): Active | Activity (Enterococcus faecium [32]): Dde | log(activity) (Enterococcus faecium [33]): 5 | Activity (Enterococcus faecium [34]): Active | Activity (Enterococcus faecium [35]): Active | Activity (Enterococcus faecium [36]): 90% | MIC99 (Enterococcus faecium [7]): 16 µg/mL | Activity (Cell membrane [37]): Tde | Activity (Enterococcus faecium [38]): Active
